IC50 data for 33 compounds are collected here from US12286424B2, “Small molecule inhibitors of galectin-3” (BRISTOL-MYERS SQUIBB COMPANY, priority 2020, dated 2025).

The target in one test is T1, hGalectin-3 (Homo sapiens, UniProt P17931).
T1 construct: made in house
T1 sequence (P17931 whole entry): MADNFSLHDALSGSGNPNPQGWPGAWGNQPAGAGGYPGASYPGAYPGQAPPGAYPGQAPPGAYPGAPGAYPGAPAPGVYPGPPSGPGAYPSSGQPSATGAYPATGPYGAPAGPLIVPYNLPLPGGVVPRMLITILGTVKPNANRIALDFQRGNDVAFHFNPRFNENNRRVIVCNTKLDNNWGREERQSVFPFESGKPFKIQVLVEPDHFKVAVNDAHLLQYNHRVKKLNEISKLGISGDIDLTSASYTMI
The test is described as follows: Gal-3 ELISA assay (hGalectin-3 neutralization binding to asialofetuin). The following applies: Table 1; read-out: hGal-3 IC50. For orientation: In an ELISA, binding on a coated surface is turned into a signal by an enzyme label.
In the case of `O=C([C@@H]1O[C@H](CO)[C@H](O)[C@H](n2cc(-c3cccc(F)c3)nn2)[C@H]1O)N1CCN(c2ccc(O)cn2)CC1` [Example 2], the IC50 is 395 nM.

With `O=C([C@@H]1O[C@H](CO)[C@H](O)[C@H](n2cc(-c3cccc(F)c3)nn2)[C@H]1O)N1CCN(c2ccc3[nH]ccc3c2)CC1` [Example 3], the IC50 was determined as 480 nM.

As for `O=C([C@@H]1O[C@H](CO)[C@H](O)[C@H](n2cc(-c3cccc(F)c3)nn2)[C@H]1O)N1CCN(c2ncc(O)cn2)CC1` [Example 4], the IC50 was 850 nM.

For `COc1cc(N2CCN(C(=O)[C@@H]3O[C@H](CO)[C@H](O)[C@H](n4cc(-c5cccc(F)c5)nn4)[C@H]3O)CC2)ccc1O` [Example 5], the half-maximal inhibitory concentration (IC50) was determined as 360 nM.

On to `Cn1ccc2cc(N3CCN(C(=O)[C@@H]4O[C@H](CO)[C@H](O)[C@H](n5cc(-c6cccc(F)c6)nn5)[C@H]4O)CC3)ccc21` [Example 6], for which the IC50 turned out to be 420 nM.

Still in this test, the particulars now being: Table 2; read-out: hGal-3 IC50.
Turning to `CO[C@@H]1[C@@H](n2cc(-c3cccc(F)c3)nn2)[C@@H](O)[C@@H](CO)O[C@H]1C(=O)N1CCN(c2ccc3c(ccn3C)c2)CC1` [Example 14], the IC50 was determined as 410 nM.

Consider `COc1ccc(N2C[C@H]3C[C@@H]2CN3C(=O)[C@@H]2O[C@H](CO)[C@H](O)[C@H](n3cc(-c4cccc(F)c4)nn3)[C@H]2OC)cc1` [Example 16], for which the IC50 was determined as 530 nM.

Take `CO[C@@H]1[C@@H](n2cc(-c3cccc(F)c3)nn2)[C@@H](O)[C@@H](CO)O[C@H]1C(=O)N1C[C@H]2C[C@@H]1CN2c1ccc2c(c1)OCO2` [Example 17]: the IC50 was found to be 311 nM.

The same test, now with this note: Table 3; read-out: hGal-3 IC50.
Regarding `O=C([C@@H]1O[C@H](CO)[C@H](O)[C@H](n2cc(-c3cccc(F)c3)nn2)[C@H]1O)N1C[C@@H]2C[C@H]1CN2c1ccc2c(c1)OCO2` [Example 20], the IC50 stood at 249 nM.

Take `COc1ccc(OC)c(N2CC3CC2CN3C(=O)C2OC(CO)C(O)C(n3cc(-c4cccc(F)c4)nn3)C2O)c1` (stereo not shown) [Example 21]: the IC50 stood at 962 nM.

On to `COc1ccc(N2CC3CC2CN3C(=O)C2OC(CO)C(O)C(n3cc(-c4cccc(F)c4)nn3)C2O)cc1OC` (stereo not shown) [Example 22], for which the IC50 amounted to 522 nM.

Staying with this test, now noted: biotin-tagged hGalectin-3 15 nM, ASF-coated plate; read-out: hGal3 IC50.
In the case of `O=C([C@@H]1O[C@H](CO)[C@H](O)[C@H](n2cc(-c3cccc(F)c3)nn2)[C@H]1O)N1CCN(c2ccc(O)cc2)CC1CO` (single isomer, unassigned) [Example 34a], the IC50 is 1300 nM.

For the compound `O=C([C@@H]1O[C@H](CO)[C@H](O)[C@H](n2cc(-c3cccc(F)c3)nn2)[C@H]1O)N1CCN(c2ccc(O)cc2)CC1CO` (single isomer, unassigned) [Example 34b], the IC50 was found to be 450 nM.

As for `O=C([C@@H]1O[C@H](CO)[C@H](O)[C@H](n2cc(-c3cccc(F)c3)nn2)[C@H]1O)N1CCN(c2ccc(O)cc2)C(CO)C1` (single isomer, unassigned) [Example 35a], the IC50 turned out to be 1100 nM.

In the case of `O=C([C@@H]1O[C@H](CO)[C@H](O)[C@H](n2cc(-c3cccc(F)c3)nn2)[C@H]1O)N1CCN(c2ccc(O)cc2)C(CO)C1` (single isomer, unassigned) [Example 35b], the IC50 stood at 140 nM.

As for `CC1CN(c2ccc(O)cc2)CCN1C(=O)[C@@H]1O[C@H](CO)[C@H](O)[C@H](n2cc(-c3cccc(F)c3)nn2)[C@H]1O` (single isomer, unassigned) [Example 36], the IC50 turned out to be 340 nM.

Regarding `C[C@@H]1CN(c2ccc(O)cc2)[C@@H](C)CN1C(=O)[C@@H]1O[C@H](CO)[C@H](O)[C@H](n2cc(-c3cccc(F)c3)nn2)[C@H]1O` (single isomer, unassigned) [Example 37a], the IC50 turned out to be 350 nM.

Take `C[C@@H]1CN(c2ccc(O)cc2)[C@@H](C)CN1C(=O)[C@@H]1O[C@H](CO)[C@H](O)[C@H](n2cc(-c3cccc(F)c3)nn2)[C@H]1O` (single isomer, unassigned) [Example 37b]: the IC50 was 310 nM.

Consider `OCC1CN(c2ccc(O)cc2)CCN1C[C@@H]1O[C@H](CO)[C@H](O)[C@H](n2cc(-c3cccc(F)c3)nn2)[C@H]1O` (single isomer, unassigned) [Example 39a], for which the IC50 was 310 nM.

`OCC1CN(c2ccc(O)cc2)CCN1C[C@@H]1O[C@H](CO)[C@H](O)[C@H](n2cc(-c3cccc(F)c3)nn2)[C@H]1O` (single isomer, unassigned) [Example 39b]: the concentration for half-maximal inhibition (IC50) turned out to be 390 nM.

As for `OCC1CN(C[C@@H]2O[C@H](CO)[C@H](O)[C@H](n3cc(-c4cccc(F)c4)nn3)[C@H]2O)CCN1c1ccc(O)cc1` (single isomer, unassigned) [Example 40a], the IC50 was found to be 940 nM.

As to `OCC1CN(C[C@@H]2O[C@H](CO)[C@H](O)[C@H](n3cc(-c4cccc(F)c4)nn3)[C@H]2O)CCN1c1ccc(O)cc1` (single isomer, unassigned) [Example 40b], the IC50 was determined as 1600 nM.

Turning to `COc1ccc(N2CC3CC2CN3C(=O)[C@@H]2O[C@H](CO)[C@H](O)[C@H](n3cc(-c4cccc(F)c4)nn3)[C@H]2O)cc1` (stereo in doubt) [Example 31, ((2R,3R,4S,5R,6R)-4-(4-(3-fluorophenyl)-1H-1,2,3-triazol-1-yl)-3,5-dihydroxy-6-(hydroxymethyl)tetrahydro-2H-pyran-2-yl)((1S,4S)-5-(4-methoxyphenyl)-2,5-diazabicyclo[2.2.1]heptan-2-yl)methanone], the 50% inhibitory concentration (IC50) is 220 nM.

For the compound `O=C([C@@H]1O[C@H](CO)[C@H](O)[C@H](n2cc(-c3cccc(F)c3)nn2)[C@H]1O)N1CCN(c2ccc(O)cc2)CC1` [Example 1, ((2R, 3R, 4S, 5R, 6R)-4-(4-(3-fluorophenyl)-1H-1,2,3-triazol-1-yl)-3,5-dihydroxy-6-(hydroxymethyl)tetrahydro-2H-pyran-2-yl)(4-(4-hydroxyphenyl)piperazin-1-yl) methanone], the 50% inhibitory concentration (IC50) amounted to 350 nM.

Consider `O=C([C@@H]1O[C@H](CO)[C@H](O)[C@H](n2cc(-c3cccc(F)c3)nn2)[C@H]1O)N1CCN(c2ccc(O)cn2)CC1` [Example 2], for which the IC50 stood at 270 nM.

For the compound `CS(=O)(=O)Nc1ccc(N2CCN(C(=O)[C@@H]3O[C@H](CO)[C@H](O)[C@H](n4cc(-c5cccc(F)c5)nn4)[C@H]3O)CC2)nc1` [Example 8, N-(6-(4-((2R,3R,4S,5R,6R)-4-(4-(3-fluorophenyl)-1H-1,2,3-triazol-1-yl)-3,5-dihydroxy-6-(hydroxymethyl)tetrahydro-2H-pyran-2-carbonyl)piperazin-1-yl)pyridin-3-yl)methanesulfonamide], the IC50 was 760 nM.

`O=C([C@@H]1O[C@H](CO)[C@H](O)[C@H](n2cc(-c3cccc(F)c3)nn2)[C@H]1O)N1CCN(c2ccc3[nH]c(=O)[nH]c3c2)CC1` [Example 9, 5-(4-((2R,3R,4S,5R,6R)-4-(4-(3-fluorophenyl)-1H-1,2,3-triazol-1-yl)-3,5-dihydroxy-6-(hydroxymethyl)tetrahydro-2H-pyran-2-carbonyl)piperazin-1-yl)-1H-benzo[d]imidazol-2(3H)-one]: the IC50 was determined as 390 nM.

Consider `COc1ccc(N2CCN(C(=O)[C@@H]3O[C@H](CO)[C@H](O)[C@H](n4cc(-c5cccc(F)c5)nn4)[C@H]3OC)CC2)cc1` [Example 11, ((2R, 3R, 4S, 5R, 6R)-4-(4-(3-fluorophenyl)-1H-1,2,3-triazol-1-yl)-5-hydroxy-6-(hydroxymethyl)-3-methoxytetrahydro-2H-pyran-2-yl)(4-(4-methoxyphenyl)piperazin-1-yl) methanone], for which the IC50 was 300 nM.

For `CO[C@@H]1[C@@H](n2cc(-c3cccc(F)c3)nn2)[C@@H](O)[C@@H](CO)O[C@H]1C(=O)N1CCN(c2ccc(O)cn2)CC1` [Example 12, ((2R, 3R, 4S, 5R, 6R)-4-(4-(3-fluorophenyl)-1H-1,2,3-triazol-1-yl)-5-hydroxy-6-(hydroxymethyl)-3-methoxytetrahydro-2H-pyran-2-yl)(4-(5-hydroxypyridin-2-yl)piperazin-1-yl) methanone], the IC50 is 470 nM.

Consider `CO[C@@H]1[C@@H](n2cc(-c3cccc(F)c3)nn2)[C@@H](O)[C@@H](CO)O[C@H]1C(=O)N1CCN(c2ccc(O)cc2)CC1` [Example 13, ((2R,3R,4S,5R,6R)-4-(4-(3-fluorophenyl)-1H-1,2,3-triazol-1-yl)-5-hydroxy-6-(hydroxymethyl)-3-methoxytetrahydro-2H-pyran-2-yl)(4-(4-hydroxyphenyl)piperazin-1-yl)methanone], for which the IC50 amounted to 150 nM.

Turning to `O=C(Nc1ccc(O)cc1)N1CCN(C(=O)[C@@H]2O[C@H](CO)[C@H](O)[C@H](n3cc(-c4cccc(F)c4)nn3)[C@H]2O)CC1` [Example 18, 4-((2R,3R,4S,5R,6R)-4-(4-(3-fluorophenyl)-1H-1,2,3-triazol-1-yl)-3,5-dihydroxy-6-(hydroxymethyl)tetrahydro-2H-pyran-2-carbonyl)-N-(4-hydroxyphenyl)piperazine-1-carboxamide], the IC50 came to 250 nM.

As to `COc1ccc(N2C[C@@H]3C[C@H]2CN3C(=O)[C@@H]2O[C@H](CO)[C@H](O)[C@H](n3cc(-c4cccc(F)c4)nn3)[C@H]2O)cc1` [Example 19, ((2R,3R,4S,5R,6R)-4-(4-(3-fluorophenyl)-1H-1,2,3-triazol-1-yl)-3,5-dihydroxy-6-(hydroxymethyl)tetrahydro-2H-pyran-2-yl)((1S,4S)-5-(4-methoxyphenyl)-2,5-diazabicyclo[2.2.1]heptan-2-yl)methanone], the IC50 was 250 nM.

In the case of `COC(=O)Nc1ccc(N2C[C@@H]3C[C@H]2CN3C(=O)[C@@H]2O[C@H](CO)[C@H](O)[C@H](n3cc(-c4cccc(F)c4)nn3)[C@H]2O)cc1` [Example 23, methyl (4-((1S,4S)-5-((2R,3R,4S,5R,6R)-4-(4-(3-fluorophenyl)-1H-1,2,3-triazol-1-yl)-3,5-dihydroxy-6-(hydroxymethyl)tetrahydro-2H-pyran-2-carbonyl)-2,5-diazabicyclo[2.2.1]heptan-2-yl)phenyl)carbamate], the IC50 worked out at 590 nM.

Take `CS(=O)(=O)Nc1ccc(N2C[C@@H]3C[C@H]2CN3C(=O)[C@@H]2O[C@H](CO)[C@H](O)[C@H](n3cc(-c4cccc(F)c4)nn3)[C@H]2O)cc1` [Example 24, N-(4-((1S,4S)-5-((2R,3R,4S,5R,6R)-4-(4-(3-fluorophenyl)-1H-1,2,3-triazol-1-yl)-3,5-dihydroxy-6-(hydroxymethyl)tetrahydro-2H-pyran-2-carbonyl)-2,5-diazabicyclo[2.2.1]heptan-2-yl)phenyl)methanesulfonamide]: the IC50 worked out at 680 nM.

One may read the IC50 as the point on the concentration scale where inhibition reaches its midpoint.
